Test results from paper PMC4526861, “Inhibition of protein kinase C by isojacareubin suppresses hepatocellular carcinoma metastasis and induces apoptosis in vitro and in vivo” (Scientific Reports, 2015).

Columns and labels:
[1] = Body weight in xenograft study; assay type: in vivo, BALB/c-nu nude mice; details: 5 mg/kg, tail vein, two weeks
Experimental: HepG2 cells were harvested and resuspended in PBS. A total of 5 × 10^6 cells were subcutaneously injected into the right flank. Tumor volume was calculated using the following formula: V = (L × W^2)/2, where L is the length and W is the width of the tumor nodules measured with vernier calipers. Once the volume of the tumors reached 75–100 mm^3, the mice were randomly divided into three groups (n = 5). The mice were treated every other day for two weeks with tail vein injections of either vehicle (5% ethanol and 2.5% polyethylene glycol in saline), compound 7, or ISJ (5 mg/kg in the vehicle). Body weights were measured before each drug injection. After the 15th day, the mice were euthanized, and the tumors were isolated, weighed and photographed.

[2] = tested on: methicillin-resistant Staphylococcus aureus (MRSA); design: method as in PMID 22942699; details: cited from earlier work
PKCζ = assay: Western blot of PKC isoform expression in cytosol and membrane; assay type: cell-based, human; details: HepG2, 24 h incubation
Experimental: To further determine whether compound 7 and ISJ represent potential candidates for selective PKC expression inhibitors against hepatoma, the expression of PKC isoforms in HepG2 cells was characterized by western blotting. After 24 h of incubation with GFX, GO, ISJ and compound 7 at the indicated concentrations, PKC proteins from the cytosol and membrane of HepG2 cells were evaluated. ISJ and compound 7 treatments reduced both the cytosol and cell membrane expression of PKCζ.
The total membrane and cytosolic proteins were extracted using a Membrane and Cytosol Protein Extraction Kit (Beyotime). Extracted proteins from cells or animal tissues were separated by SDS-PAGE and transferred to polyvinylidene difluoride (PVDF) membranes (Bio-Rad). The PVDF membranes were blocked with 5% nonfat milk and incubated with primary antibodies overnight, followed by incubation with a donkey anti-rabbit or anti-mouse secondary antibody (IRDye 800, LI-COR, Biosciences). The images were captured using the Odyssey Infrared Imaging System (LI-COR, Biosciences), according to the manufacturer's instructions. The intensity was quantitative with Quantity One software (Bio-Rad). To ensure equal protein loading, each membrane was stripped and reprobed with an anti-β-actin antibody. All experiments were repeated independently no less than three times.

PKCα = target: T1, PKCα (Homo sapiens, UniProt P17252); assay: Cell-based pull-down assay, PKCα; assay type: binding; details: HepG2 lysates
T1 construct: Endogenous cPKC (PKCα) and nPKC (PKCδ, PKCε and PKCμ) in HepG2 lysates were pulled down; endogenous in cells; host or cells: HepG2
Experimental: To identify whether ISJ and compound 7 target PKC in cells, we performed pull-down experiments using ISJ- and compound 7-coupled Sepharose beads with HepG2 cell lysates. Endogenous cPKC (PKCα) and nPKC (PKCδ, PKCε and PKCμ) in HepG2 lysates were pulled down by ISJ-coupled CNBr-activated Sepharose 4B beads (Fig. 5a).
The control beads were prepared by incubating the beads with DMSO. Proteins (500 μg) from lysed HepG2 cells were mixed with either the control beads, compound 7-coupled beads, or ISJ-coupled beads (100 μL) in reaction buffer [50 mM Tris (pH 7.5), 5 mM EDTA, 150 mM NaCl, 1 mM DTT, 0.01% NP-40, 2 μg/mL BSA, 1 mM PMSF, 1% protease inhibitor mixture]. After incubation with gentle rocking overnight at 4 °C, the beads were washed 5 times with washing buffer [50 mM Tris (pH 7.5), 5 mM EDTA, 150 mM NaCl, 1 mM DTT, 0.01% NP-40, 1 mM PMSF], and binding was visualized by western blotting.

HepG2 cells = assay: Wound healing (migration) assay; assay type: cell-based, human; details: 10 μM, 24 h
Experimental: Cell migration and invasion potencies were studied using wound healing and Matrigel invasion assays. The wound healing assay was performed by scratching the cell surface with a 10 μL pipette tip. Then, the cells were treated with compound 7 and ISJ (10 μM) and incubated for 24 h before being photographed under a microscope (DMI3000 B, Leica). Wound closure was evaluated using ImageJ software. Invasion through a Matrigel-coated filter was measured in transwell chambers (Corning Costa) as described previously, with minor modifications. Briefly, HepG2 Cells (2 × 10^5/well) were suspended in serum-free medium and added to the upper chamber of the Matrigel plate. FBS (10%) was used as the chemoattractant in the lower chamber. After incubation for 24 h, the non-invading cells were removed from the upper surface of the insert membrane with a cotton swab. The invading cells were fixed with methanol and stained with Giemsa (Sigma). Cells in five randomly selected fields were photographed, and the numbers of cells that crossed the membrane were counted.

[3] = tested on: MMP-9, FGFR-1, E-cadherin; assay: Western blot of invasion-related proteins, HepG2; assay type: cell-based, human; details: HepG2, 24 h
Experimental: Additional PKC targeting effects involved in the early response of major MAPK phosphorylation and the late response of HCC cell invasion and apoptosis were investigated. After 24 h of treatment with ISJ at the indicated concentrations, the total protein lysates from HCC cells were analyzed (Fig. 6). ISJ inhibited the phosphorylated, activated forms of c-Raf, MEK1/2 and ERK1/2 in the MAPK signaling pathway in both HepG2 and QGY-7703 cells (Fig. 6a). […] In contrast, E-cadherin expression was elevated, specifically at the highest concentration of ISJ (20 μM) (Fig. 6b). In addition, we analyzed several representative apoptotic proteins, including cleaved PARP (c-PARP), p53 and p21. […] These findings support our hypothesis that ISJ restrains HCC cell metastasis and induces HCC cell apoptosis by specifically inhibiting PKC.
The total membrane and cytosolic proteins were extracted using a Membrane and Cytosol Protein Extraction Kit (Beyotime). Extracted proteins from cells or animal tissues were separated by SDS-PAGE and transferred to polyvinylidene difluoride (PVDF) membranes (Bio-Rad). The PVDF membranes were blocked with 5% nonfat milk and incubated with primary antibodies overnight, followed by incubation with a donkey anti-rabbit or anti-mouse secondary antibody (IRDye 800, LI-COR, Biosciences). […] The intensity was quantitative with Quantity One software (Bio-Rad). […]

QGY-7703 cells = assay: Cell proliferation assay (CCK-8), QGY-7703; assay type: cell-based, human
Experimental: The human HCC cell lines QGY-7703, SMMC-7721 and HepG2 and the liver cell line QSG-7701 were supplied by the Cell Resource Center, Institute of Life Sciences, Chinese Academy of Medical Science. QGY-7703, SMMC-7721 and QSG-7701 cells were cultured in 1640 medium (Gibco), and HepG2 cells were cultured in DMEM medium (Gibco) at 37 °C in moist air supplemented with 5% CO2. All media were supplemented with 10% fetal bovine serum (FBS) and 100 Units/mL of penicillin/streptomycin.
The cell viability assay was performed as previously reported using a Cell Counting Kit-8 (CCK-8; Dojindo, Kumamoto, Japan)[33][34]. The relative cell viability was presented as % inhibition and calculated using the following formula: […]

Isojacareubin [ISJ]
change in body weight compared to vehicle-treated controls [1]: no significant change | antibacterial activity against MRSA [2]: potent antibacterial compound | PKCζ expression in cytosol and cell membrane (PKCζ): significantly decreased | pull-down of endogenous PKCα by compound-coupled Sepharose 4B beads (PKCα): pulled down | decrease of HepG2 cell migration compared to control (HepG2 cells): 77.8% | expression levels of MMP-9 and FGFR-1 [3]: markedly reduced | E-cadherin expression ([3]; specifically at 20 μM): elevated | Inhibitory Ratio (%) QGY-7703 (QGY-7703 cells; 50 μM): 83.69% | IC50 (QGY-7703 cells; mean ± SD, at least three independent experiments): 4.65 ± 0.32 µM
